This series is described as follows: Lipophilicity by reversed-phase thin-layer chromatography (RP-TLC), isopropanol-water mobile phase. The conditions noted are these: for mRM (arithmetic mean of the experimental retention factors RM): RP-18F254s plates, isopropanol 70–90% in water; for RM0 (relative lipophilicity, RM extrapolated to pure water): Soczewinski Wachtmeister equation, isopropanol 70–90%; for PC1(RM): score of first principal component of RM values at isopropanol 70–90%; for b (slope): slope of RM versus isopropanol concentration; for φ0 (chromatographic hydrophobic index): φ0 = RM0/b; for lipophilicity (in words): chromatographic lipophilicity profile / lipophilicity descriptors. The format is physicochemical. The method, then: Lipophilicity was assessed by RP-TLC, using RP-[…] standard silica gel plates (20 × 10 cm) as the stationary phase. An isopropanol:water binary mixture was used as the mobile phase, with different isopropanol concentrations 70%, 75%, 80%, 85%, 90% for thiazolo[3,2-b][1,2,4]triazole (1a–16a) and imidazo[2,1-b][1,3,4]thiadiazole (1b–16b) compounds.
The standard solutions (1 mg/mL) used to investigate the lipophilicity of the synthesized compounds were prepared in dichloromethane (1a–16a compounds) and dimethylsulfoxide (1b–16b compounds). From the obtained solutions, 2 µL was applied manually on the chromatographic plates, at 15 mm from the baseline and 5 mm from the edges of the plate at a spot distance of 12 mm. This procedure was repeated three times. The chromatographic plate upward elution was performed in a chromatographic chamber previously saturated for 30 min with mobile phase, at normal atmospheric pressure and room temperature. The migration distance of the eluent was 80 mm. The chromatographic plates were visually inspected under UV light at λ = 254 nm to identify the compounds. In order to minimize possible experimental errors, three measurements were performed for each mobile phase. The retention factors (Rf) were calculated as the average of three determinations in each case.
Based on the Rf values, a variety of parameters can be determined to estimate the lipophilicity of the compounds. The isocratic retention factor (RM) was determined using the Bate–Smith and Westall equation [34]:RM = log(1/Rf − 1) where Rf = x/y and x = the migration distance of the compound, and y = the migration distance of the solvent front.
There is usually a linear correlation between the RM values and the concentration of the organic component in the mobile phase. For a better estimation of lipophilicity, RM0 was determined as the extrapolated retention factor, considering pure water as the mobile phase (Soczewinski Wachtmeister equation):RM = RM0 + bC where b is the slope of the curve, which indicates the rate at which the solubility of the compound increases in the mobile phase, C is the concentration of the isopropanol in the mobile phase, and RM0 is the RM of the compound when the concentration of isopropanol is zero (extrapolated value).
To estimate the lipophilicity of the compounds, φ0, representing the chromatographic hydrophobicity index, was also determined. It corresponds to the percentage (by volume) of the organic component in the mobile phase and can be determined according to the following formula:φ0 = RM0/b
In order to assess the lipophilicity of compounds, other more relevant lipophilicity parameters have been used, such as the arithmetic mean of the experimental retention factors (mRM), and the score associated with the first principal component (PC1(RM)) obtained by applying principal component analysis (PCA) to the retention parameters RM [35, 36]. The determination of these parameters eliminates the errors that appear during the extrapolation procedure (when determining RM0) so that the results are more accurate.

We go through 21 molecules from PMC10975611, “Heterocycles 52: The Drug-Likeness Analysis of Anti-Inflammatory Thiazolo[3,2-b][1,2,4]triazole and Imidazo[2,1-b][1,3,4]thiadiazole Derivatives” (Pharmaceuticals, 2024).

Regarding `NS(=O)(=O)c1ccc(-c2nc3scc(-c4ccc(C(F)(F)F)cc4)n3n2)cc1` [Compound 15a], the “mRM (arithmetic mean of the experimental retention factors RM)” value (“mRM” below) was −0.504; the “RM0 (relative lipophilicity, RM extrapolated to pure water)” value is given as 1.534; the “PC1(RM)” value is given as 1.694; the “b (slope)” value is −0.026. In addition, the “φ0 (chromatographic hydrophobic index)” value stood at 60.16.

`COc1ccc(-c2csc3nc(-c4ccc(Cl)cc4)nn23)cc1` [Compound 8a]: the “mRM” value turned out to be 0.166; the “RM0 (relative lipophilicity, RM extrapolated to pure water)” value was 2.126; the “PC1(RM)” value is −0.701; the “b (slope)” value is −0.025. Also, the “φ0 (chromatographic hydrophobic index)” value was determined as 86.79.

Consider `NS(=O)(=O)c1ccc(-c2nn3cc(-c4ccc(C(F)(F)F)cc4)nc3s2)cc1` [Compound 15b], for which the “mRM” value is recorded as −0.504; the “RM0 (relative lipophilicity, RM extrapolated to pure water)” value is given as 1.725; the “PC1(RM)” value is 1.693; the “b (slope)” value is reported as −0.028. Also, the “φ0 (chromatographic hydrophobic index)” value is 62.28.

Turning to `Brc1ccc(-c2cn3nc(-c4ccccc4)sc3n2)cc1` [Compound 2b], the “mRM” value was determined as 0.174; the “RM0 (relative lipophilicity, RM extrapolated to pure water)” value was 2.507; the “lipophilicity (in words)” value is given as “high lipophilicity”; the “PC1(RM)” value is on record as −0.730. For the same molecule, the “b (slope)” value is reported as −0.029 and the “φ0 (chromatographic hydrophobic index)” value is recorded as 85.86.

For `COc1ccc(-c2csc3nc(-c4ccc(S(N)(=O)=O)cc4)nn23)cc1` [Compound 16a], the “mRM” value is −0.529; the “RM0 (relative lipophilicity, RM extrapolated to pure water)” value is 0.864; the “PC1(RM)” value was 1.788; the “b (slope)” value is recorded as −0.017. The “φ0 (chromatographic hydrophobic index)” value was determined as 49.68.

Turning to `COc1ccc(-c2nc3scc(-c4ccc(C(F)(F)F)cc4)n3n2)cc1` [Compound 11a], the “mRM” value was 0.032; the “RM0 (relative lipophilicity, RM extrapolated to pure water)” value is given as 2.217; the “PC1(RM)” value is given as −0.226; the “b (slope)” value was −0.027. Also, the “φ0 (chromatographic hydrophobic index)” value is listed as 81.22.

With `COc1ccc(-c2nc3scc(-c4ccc(Br)cc4)n3n2)cc1` [Compound 10a], the “mRM” value stood at 0.168; the “RM0 (relative lipophilicity, RM extrapolated to pure water)” value was 2.132; the “lipophilicity (in words)” value was “high lipophilicity”; the “PC1(RM)” value is listed as −0.711. Besides, the “b (slope)” value is recorded as −0.025 and the “φ0 (chromatographic hydrophobic index)” value is 87.00.

As for `FC(F)(F)c1ccc(-c2cn3nc(-c4ccccc4)sc3n2)cc1` [Compound 3b], the “mRM” value stood at 0.062; the “RM0 (relative lipophilicity, RM extrapolated to pure water)” value was 2.410; the “PC1(RM)” value was −0.331; the “b (slope)” value was −0.029. The “φ0 (chromatographic hydrophobic index)” value is reported as 81.96.

As for `NS(=O)(=O)c1ccc(-c2nn3cc(-c4ccc(Br)cc4)nc3s2)cc1` [Compound 14b], the “mRM” value was −0.416; the “RM0 (relative lipophilicity, RM extrapolated to pure water)” value is recorded as 1.399; the “PC1(RM)” value was determined as 1.382; the “b (slope)” value is −0.023. For the same molecule, the “φ0 (chromatographic hydrophobic index)” value is recorded as 62.17.

As to `COc1ccc(-c2cn3nc(-c4ccc(S(N)(=O)=O)cc4)sc3n2)cc1` [Compound 16b], the “mRM” value is recorded as −0.511; the “RM0 (relative lipophilicity, RM extrapolated to pure water)” value is on record as 0.938; the “PC1(RM)” value is recorded as 1.723; the “b (slope)” value is −0.018. For the same molecule, the “φ0 (chromatographic hydrophobic index)” value was 52.12.

Take `FC(F)(F)c1ccc(-c2csc3nc(-c4ccccc4)nn23)cc1` [Compound 3a]: the “mRM” value was determined as 0.065; the “RM0 (relative lipophilicity, RM extrapolated to pure water)” value is reported as 2.229; the “PC1(RM)” value is reported as −0.341; the “b (slope)” value is −0.027. Also, the “φ0 (chromatographic hydrophobic index)” value came out at 82.54.

Regarding `Brc1ccc(-c2csc3nc(-c4ccccc4)nn23)cc1` [Compound 2a], the “mRM” value amounted to 0.200; the “RM0 (relative lipophilicity, RM extrapolated to pure water)” value is on record as 2.130; the “lipophilicity (in words)” value was “high lipophilicity”; the “PC1(RM)” value is listed as −0.821. The “b (slope)” value is −0.024 and the “φ0 (chromatographic hydrophobic index)” value is 88.37.

With `COc1ccc(-c2nn3cc(-c4ccc(C(F)(F)F)cc4)nc3s2)cc1` [Compound 11b], the “mRM” value is given as 0.110; the “RM0 (relative lipophilicity, RM extrapolated to pure water)” value is given as 1.973; the “PC1(RM)” value is recorded as −0.498; the “b (slope)” value is listed as −0.023. Besides, the “φ0 (chromatographic hydrophobic index)” value is 84.69.

On to `COc1ccc(-c2nn3cc(-c4ccc(Br)cc4)nc3s2)cc1` [Compound 10b], for which the “mRM” value was determined as 0.222; the “RM0 (relative lipophilicity, RM extrapolated to pure water)” value is 1.990; the “lipophilicity (in words)” value is “high lipophilicity”; the “PC1(RM)” value is −0.899. Also, the “b (slope)” value is given as −0.022 and the “φ0 (chromatographic hydrophobic index)” value was found to be 90.04.

In the case of `NS(=O)(=O)c1ccc(-c2nc3scc(-c4ccc(Br)cc4)n3n2)cc1` [Compound 14a], the “mRM” value is recorded as −0.435; the “RM0 (relative lipophilicity, RM extrapolated to pure water)” value was 1.309; the “PC1(RM)” value was determined as 1.448; the “b (slope)” value is recorded as −0.022. Moreover, the “φ0 (chromatographic hydrophobic index)” value amounted to 60.05.

Consider `COc1ccc(-c2cn3nc(-c4ccc(Cl)cc4)sc3n2)cc1` [Compound 8b], for which the “mRM” value is 0.148; the “RM0 (relative lipophilicity, RM extrapolated to pure water)” value is recorded as 2.183; the “PC1(RM)” value was −0.634; the “b (slope)” value is reported as −0.026. For the same molecule, the “φ0 (chromatographic hydrophobic index)” value is on record as 84.92.

Regarding `Clc1ccc(-c2nc3scc(-c4ccc(Br)cc4)n3n2)cc1` [Compound 6a], the “mRM” value came to 0.324; the “RM0 (relative lipophilicity, RM extrapolated to pure water)” value was 2.582; the “lipophilicity (in words)” value is “the most lipophilic compounds”; the “PC1(RM)” value is listed as −1.267. Moreover, the “b (slope)” value is reported as −0.028 and the “φ0 (chromatographic hydrophobic index)” value is 91.57.

`FC(F)(F)c1ccc(-c2cn3nc(-c4ccc(Cl)cc4)sc3n2)cc1` [Compound 7b]: the “mRM” value was determined as 0.086; the “RM0 (relative lipophilicity, RM extrapolated to pure water)” value was 2.468; the “PC1(RM)” value is reported as −0.414; the “b (slope)” value is reported as −0.030. In addition, the “φ0 (chromatographic hydrophobic index)” value is on record as 82.28.

As for `Clc1ccc(-c2nc3scc(-c4ccccc4)n3n2)cc1` [Compound 5a], the “mRM” value was determined as 0.178; the “RM0 (relative lipophilicity, RM extrapolated to pure water)” value was 2.131; the “PC1(RM)” value was −0.743; the “b (slope)” value is reported as −0.024. Also, the “φ0 (chromatographic hydrophobic index)” value was found to be 87.32.

For the molecule `FC(F)(F)c1ccc(-c2csc3nc(-c4ccc(Cl)cc4)nn23)cc1` [Compound 7a], the “mRM” value was 0.186; the “RM0 (relative lipophilicity, RM extrapolated to pure water)” value is listed as 2.648; the “PC1(RM)” value is −0.775; the “b (slope)” value is recorded as −0.031. For the same molecule, the “φ0 (chromatographic hydrophobic index)” value is given as 85.99.

In the case of `Clc1ccc(-c2nn3cc(-c4ccc(Br)cc4)nc3s2)cc1` [Compound 6b], the “mRM” value is reported as 0.239; the “RM0 (relative lipophilicity, RM extrapolated to pure water)” value was 2.454; the “lipophilicity (in words)” value is on record as “the most lipophilic compounds”; the “PC1(RM)” value is recorded as −0.960. Moreover, the “b (slope)” value is listed as −0.028 and the “φ0 (chromatographic hydrophobic index)” value stood at 87.94.
